Data: PMC4435632, “Phase 1 study of ixazomib, an investigational proteasome inhibitor, in advanced non-hematologic malignancies” (Investigational New Drugs, 2015)

Columns and labels:
[1] = biological target: chymotrypsin-like activity of the β5 subunit of the 20S proteasome (Homo sapiens, UniProt P28074); experiment: Whole blood 20S proteasome activity, fluorogenic assay; format: in vivo
Method: Blood samples for determination of plasma ixazomib concentrations for pharmacokinetic analysis (3 mL) and for measurement of whole blood 20S proteasome activity (1 mL) were collected at the following timepoints for all patients in the dose-escalation cohort and for the first 12 patients completing cycle 1 while receiving protocol-specified treatment at the MTD: pre-dose (within 1 h) on days 1, 4, 8, and 11 of cycle 1, and on day 1 of cycle 2; and on days 1 and 11, cycle 1, at 5, 15 and 30 min, and 1, 2, 4, 9, 24, 48, 96 (day 11 only), 120 (day 11 only), and 168 (day 11 only) h post-dose. A limited sampling schedule was employed for the remaining patients in the MTD expansion cohorts.
Plasma concentrations of ixazomib were measured using a good laboratory practice-validated liquid chromatography/tandem mass spectrometry (LC/MS/MS) assay with a lower limit of quantification of 0.5 ng/mL. Whole blood 20S proteasome activity (expressed as percent proteasome inhibition relative to baseline) was measured using an established fluorogenic assay, which evaluates the chymotrypsin-like activity of the β5 subunit of the 20S proteasome, the primary target of ixazomib. […]
All efficacy and safety data were summarized using descriptive statistics. Pharmacokinetic and pharmacodynamic parameters were calculated using noncompartmental methods (WinNonlin software v5.3).

[2] = system: advanced non-hematologic malignancies; experiment: Disease response (RECIST 1.0 / modified PCWG2); format: in vivo, human
Description: AEs were monitored throughout the study and were graded according to National Cancer Institute Common Terminology Criteria for Adverse Events (NCI-CTCAE) v3.0. Response assessments were undertaken by investigators using a consistent imaging modality in accordance with RECIST 1.0 [23] on days 18–21 of cycle 2 and subsequent cycles. For patients with prostate cancer, response and progressive disease were based on RECIST for measurable neoplastic disease or on measurement of serum PSA per modified PCWG2 criteria in the absence of measurable sites.
The safety population included all patients who received ≥1 dose of ixazomib, and the DLT-evaluable population, which was used for determination of the MTD, comprised patients who received all cycle 1 doses of ixazomib or experienced a DLT in cycle 1. […] The response-evaluable population included all patients who received ≥1 dose of ixazomib, had measurable disease at baseline, and had ≥1 post-baseline disease assessment. Approximately 16 response-evaluable patients were planned to be evaluated in each MTD expansion cohort.

CC(C)C[C@H](NC(=O)CNC(=O)c1cc(Cl)ccc1Cl)B(O)O [ixazomib]
Time to Emax, whole blood 20S proteasome ([1]; day 1, 0.125 mg/m^2 IV, n = 1): 1.0 h
Emax, whole blood 20S proteasome ([1]; day 1, 0.125 mg/m^2 IV, n = 1, individual value): 7.7 % inhibition
Time to Emax, whole blood 20S proteasome ([1]; day 1, 0.25 mg/m^2 IV, n = 1): 0.10 h
Emax, whole blood 20S proteasome ([1]; day 1, 0.25 mg/m^2 IV, n = 1, individual value): 17.9 % inhibition
Time to Emax, whole blood 20S proteasome ([1]; day 1, 0.5 mg/m^2 IV, n = 1): 0.25 h
Emax, whole blood 20S proteasome ([1]; day 1, 0.5 mg/m^2 IV, n = 1, individual value): 28.2 % inhibition
Emax, whole blood 20S proteasome ([1]; day 1, 1 mg/m^2 IV, n = 7, mean (± SD)): 36.9 (±19.4) % inhibition
Time to Emax, whole blood 20S proteasome ([1]; day 1, 1 mg/m^2 IV, n = 7, median (range)): 0.10 (0.08–0.10) h
Emax, whole blood 20S proteasome ([1]; day 1, 1.33 mg/m^2 IV, n = 4, mean (± SD)): 46.7 (±9.4) % inhibition
Time to Emax, whole blood 20S proteasome ([1]; day 1, 1.33 mg/m^2 IV, n = 4, median (range)): 0.25 (0.1–0.25) h
Emax, whole blood 20S proteasome ([1]; day 1, 1.76 mg/m^2 IV, n = 19, mean (± SD)): 61.3 (±7.9) % inhibition
Time to Emax, whole blood 20S proteasome ([1]; day 1, 1.76 mg/m^2 IV, n = 19, median (range)): 0.10 (0.067–0.267) h
Emax, whole blood 20S proteasome ([1]; day 1, 2.34 mg/m^2 IV, n = 3, mean (± SD)): 64.4 (±3.4) % inhibition
Time to Emax, whole blood 20S proteasome ([1]; day 11, 0.125 mg/m^2 IV, n = 1): 24.0 h
Emax, whole blood 20S proteasome ([1]; day 11, 0.125 mg/m^2 IV, n = 1, individual value): 4.5 % inhibition
Time to Emax, whole blood 20S proteasome ([1]; day 11, 0.25 mg/m^2 IV, n = 1): 0.083 h
Emax, whole blood 20S proteasome ([1]; day 11, 0.25 mg/m^2 IV, n = 1, individual value): 10.0 % inhibition
Time to Emax, whole blood 20S proteasome ([1]; day 11, 0.5 mg/m^2 IV, n = 1): 0.1 h
Emax, whole blood 20S proteasome ([1]; day 11, 0.5 mg/m^2 IV, n = 1, individual value): 46.1 % inhibition
Emax, whole blood 20S proteasome ([1]; day 11, 1 mg/m^2 IV, n = 6, mean (± SD)): 38.9 (±8.35) % inhibition
Time to Emax, whole blood 20S proteasome ([1]; day 11, 1 mg/m^2 IV, n = 6, median (range)): 0.1 (0.0–0.117) h
Emax, whole blood 20S proteasome ([1]; day 11, 1.33 mg/m^2 IV, n = 3, mean (± SD)): 54.3 (±4.1) % inhibition
Time to Emax, whole blood 20S proteasome ([1]; day 11, 1.33 mg/m^2 IV, n = 3, median (range)): 0.083 (0.083–0.1) h
Emax, whole blood 20S proteasome ([1]; day 11, 1.76 mg/m^2 IV, n = 15, mean (± SD)): 62.5 (±7.71) % inhibition
Time to Emax, whole blood 20S proteasome ([1]; day 11, 1.76 mg/m^2 IV, n = 15, median (range)): 0.10 (0.083–0.283) h
Emax, whole blood 20S proteasome ([1]; day 11, 2.34 mg/m^2 IV, n = 3, mean (± SD)): 72.5 (±4.71) % inhibition
Time to Emax, whole blood 20S proteasome ([1]; day 11, 2.34 mg/m^2 IV, n = 3, median (range)): 0.10 (0.083-0.133) h
inhibition at 1.76 mg/m2 ([1]; read-out: Average maximal inhibition of 20S proteasome activity in whole blood): 60%
Recovery of 20S proteasome activity to predose levels ([1]; single-dose administration on day 1, except dose level greater than the MTD): ≤ 24 h
Patients with stable disease ([2]; 92 response-evaluable patients): 30 patients
Patients with stable disease lasting for ≥4 cycles ([2]; 92 response-evaluable patients): eight
Patients with partial response ([2]; 92 response-evaluable patients, head and neck cancer, MTD 1.76 mg/m^2): one
Reduction in tumor diameter ([2]; one patient with kidney malignancy, progressive disease at end of study): 14%
Reduction in tumor diameter ([2]; other patient with kidney malignancy, discontinued due to grade 3 acute renal failure): 22%
Total duration of partial response ([2]; patient with head and neck cancer, achieved after 4 cycles, maintained for 8 cycles): 6.7 months
